Reference: patent US9376382B2, “N-substituted isopropyldimethyl azulene sulfonamide derivatives, and preparation method and use thereof” (Sichuan Guokang Pharmaceutical Co., Ltd., priority 2011, dated 2016)
“Also recorded” adds a separate entry of the source.

Key:
[1] = Stability studies (light, humidity, heat), overall comparison; conditions: summary of high-temperature, high humidity and intense light tests
Protocol: (§1) The test samples were open-stored in culture dishes at 60° C. for 10 days, and taken and detected on Day 5 and Day 10. • The characteristics, especially colour change were observed. • Melting points were measured by automatic melting point apparatus. • By self-reflection, TLC is used to observe whether the spot numbers were increased after 5 days and 10 days.
(§2) The test samples were open-stored in closed constant humidity desiccators under the condition of 25° C. and relative humidity of 90%+5% for 10 days, and taken and detected on Day 5 and Day 10. Meanwhile, each sample was accurately weighed before and after test.
(§3) The test samples were open-stored in “adjustable light boxes” under the conditions of illumination of 4500LX±500LX for 10 days, and taken and detected on Day 5 and Day 10 with regards to dry items. • The characteristics, especially colour change was observed. • Melting points were measured by an automatic melting point apparatus. • By self-reflection, TLC is used to observe whether the spot numbers were increased after 5 days and 10 days.

[2] = High-temperature test (60° C.), stability study; assay type: physicochemical; conditions: open-stored; for Appearance Day 5: Day 5, cell wraps; for Appearance Day 5 / Appearance Day 10: first line given; for Appearance Day 10: Day 10, cell wraps;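 as to all read-outs here: samples kept uncovered in dishes at 60 °C for up to 10 days and examined on Day 5 and Day 10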
Protocol: as §1

[3] = High humidity test (25° C., relative humidity 90% ± 5%), stability study; assay type: physicochemical; conditions: RH 90% ± 5%; for Appearance Day 0: Day 0, cell wraps; for Appearance Day 0 / Appearance Day 5 / Appearance Day 10: first line given; for Appearance Day 5: Day 5, cell wraps; for Appearance Day 10: Day 10, cell wraps;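 as to all read-outs here: samples kept uncovered in sealed humidity desiccators, appearance judged mainly by colour change, melting point on an automatic apparatus, TLC checked for extra spots versus start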
Protocol: as §2
The characteristics, especially colour change was observed.
Melting points were measured by an automatic melting point apparatus.
By self-reflection, TLC is used to observe whether the spot numbers were increased after 5 days and 10 days.

[4] = Intense light irradiation test (4500LX ± 500LX), stability study; assay type: physicochemical; conditions: for Appearance Day 0: Day 0, cell wraps; for Appearance Day 0 / Appearance Day 5 / Appearance Day 10: first line given; for Appearance Day 5: Day 5, cell wraps; for Appearance Day 10: Day 10, cell wraps
Protocol: as §3

[5] = tested on: ethanol-induced gastric ulcer; assay: Anhydrous ethanol-induced gastric ulcer in mice; assay type: in vivo, Kunming mice; set-up: key to Gastri ulcer score (X ± SD) / Ulcer score (X ± SD) / Gastric ulcer score (X ± SD): summed pathology score: congestion 1, hemorrhage/erosion 1, linear erosion 3; conditions: for Inhibition rate (%): inhibition rate of ulcer vs model group; for anti-gastric ulcer effect in words: ethanol-induced gastric ulcer in mice, compared to the model group
Protocol: Kunming mice, half male and half female, weighing 18-22 g, provided by the West China Animal Center
(1) Azulene sodium sulphonate was added with 0.5% CMC to prepare a suspension with concentration of 0.15 mg/ml.
(2) 20 mg of Omeprazole was added with 0.5% CMC to prepare a suspension with concentration of 0.67 mg/ml.
Kunming mice were randomly grouped according the body weight (one model control group or negative control group, one Omeprazole control group or positive control group, one Azulene sodium sulphonate control group, twelve test drug groups), eight mice for each group, half male and half female.
Administration: Model control group was administrated intragastrically with 0.5% CMC solution at a dose of 0.4 ml/20 g; Omeprazole control group was administrated intragastrically with Omeprazole at a dose of 0.4 ml/20 g, Azulene sodium sulphonate control group and each test drug groups were administrated intragastrically with their respective drug at a dose of 0.4 ml/20 g. The mice in each group were administrated once a day for successive five days. 0.5 hour after final administration, the mice in each group were administrated intragastrically with 0.5 ml of anhydrous ethanol, one hour later the mice were executed and dissected, and their stomaches were taken, washed and scored according to the pathological degree. For local congestion and rubefaction, score was 1; for petechial hemorrhage or erosion, score was respectively 1, for each linear erosion, score was 3. Statistical analysis was performed. Ulcer scores were calculated, significant differences between the groups were compared and the inhibition rates of ulcer were calculated [Inhibition rate of ulcer=(ulcer score of model group−ulcer score of drug administration group)/ulcer score of model group].

[6] = Stability of the purified compound in the air; assay type: physicochemical
[7] = Table 5 data, relative increase

| SMILES | light, humidity and heat stability in words [1] | Melting point Day 0 [2] | Spot numbers on TLC Day 0 [2] | Melting point Day 5 [2] | Spot numbers on TLC Day 5 [2] | Appearance Day 5 [2] | Melting point Day 10 [2] | Spot numbers on TLC Day 10 [2] | Appearance Day 10 [2] | Melting point Day 0 [3] | Spot numbers on TLC Day 0 [3] | hygroscopic rate (%) Day 0 [3] [%] | Appearance Day 0 [3] | Melting point Day 5 [3] | Spot numbers on TLC Day 5 [3] | hygroscopic rate (%) Day 5 [3] [%] | Appearance Day 5 [3] | Melting point Day 10 [3] | Spot numbers on TLC Day 10 [3] | Appearance Day 10 [3] | further results |
| --- | --- | --- | --- | --- | --- | --- | --- | --- | --- | --- | --- | --- | --- | --- | --- | --- | --- | --- | --- | --- | --- |
| Cc1cc(S(=O)(=O)NC2CCCCC2)c2c(C)ccc(C(C)C)cc1-2 [4i, N-cyclohexyl-3,8-dimethyl-5-isopropyl-1-azulene sulfonamide] | better light, humidity and heat stability than azulene sulfonate sodium | 107.5-108.5 °C | 1 | 107.0-108.5 °C | 1 | purple | 107.0-108.5 °C | 1 | purple | 108.5-109.0 °C | 1 | 1.89 | purple | 108.5-109.5 °C | 1 | 2.35 | purple | 107.5-108.5 °C | 1 | purple | melting point: 108 to 109 °C; Melting point Day 0 [4]: 107.5-108.5 °C; Spot numbers on TLC Day 0 [4]: 1; Appearance Day 0 [4]: purple; Melting point Day 5 [4]: 107.5-108.5 °C; Spot numbers on TLC Day 5 [4]: 1; Appearance Day 5 [4]: purple; Spot numbers on TLC Day 10 ([4]; Day 10): 1; Appearance Day 10 [4]: purple; Inhibition rate (%) ([5]; Table 4): 50.92%; Gastri ulcer score (X ± SD) ([5]; Table 4, mice, intragastric once a day for five days, dose equimolar to azulene sulfonate sodium 3.0 mg/kg (Omeprazole 13.4 mg/kg), model group 13.00 ± 1.77): 6.38 ± 3.85; anti-gastric ulcer effect in words [5]: significantly relieve the pathological degree |
| Cc1cc(S(=O)(=O)Nc2ccc(N)cc2)c2c(C)ccc(C(C)C)cc1-2 [4l, N-(4-aminophenyl)-3,8-dimethyl-5-isopropyl-1-azulene sulfonamide] | better light, humidity and heat stability than azulene sulfonate sodium | 87.5-89.0 °C | 1 | 88.0-89.0 °C | 1 | purple | 88.0-89.0 °C | 1 | purple | 87.5-89.0 °C | 1 | 1.09 | purple | 87.5-89.5 °C | 1 | 1.81 | purple | 87.5-89.5 °C | 1 | purple | melting point: 88 to 90 °C; Melting point Day 0 [4]: 87.5-89.0 °C; Spot numbers on TLC Day 0 [4]: 1; Appearance Day 0 [4]: purple; Melting point Day 5 [4]: 87.5-89.0 °C; Spot numbers on TLC Day 5 [4]: 1; Appearance Day 5 [4]: purple; Melting point Day 10 ([4]; Day 10): 87.5-89.5 °C; Spot numbers on TLC Day 10 ([4]; Day 10): 1; Appearance Day 10 [4]: purple; Inhibition rate (%) ([5]; Table 5): 45.20%; Ulcer score (X ± SD) ([5]; Table 5, mice, intragastric once a day for five days, equimolar doses, model group 20.33 ± 12.23): 11.14 ± 6.41; increase of inhibition rate compared to Omeprazole [5, 7]: 23%; increase of inhibition rate compared to azulene sulfonate sodium [5, 7]: 38%; anti-gastric ulcer effect in words [5]: significantly relieve the pathological degree; also recorded: better therapeutic effect on gastric ulcer than azulene sulfonate sodium and omeprazole |
| Cc1cc(S(=O)(=O)NN)c2c(C)ccc(C(C)C)cc1-2 [4m, N-amino-3,8-dimethyl-5-isopropyl-1-azulene sulfonamide] |  |  |  |  |  |  |  |  |  |  |  |  |  |  |  |  |  |  |  |  | stability in the air [6]: deteriorated soon in the air and had a very poor stability |
